Data: ChEMBL document CHEMBL1156367, “Makaluvamine P, a new cytotoxic pyrroloiminoquinone from Zyzzya cf. fuliginosa” (J Nat Prod, 2001)

What was measured:
KB = assay: Cytotoxicity against human KB cells at 3.2 ug/mL after 48 hrs by XTT assay; assay type: functional
[1] = ABTS radical scavenging activity assessed as trolox equivalents by TEAC assay; assay type: physicochemical
[2] = target: Xanthine dehydrogenase/oxidase (Homo sapiens, UniProt P47989); assay: Inhibition of xanthine oxidase by spectrophotometry
Sequence of Xanthine dehydrogenase/oxidase (P47989 whole entry): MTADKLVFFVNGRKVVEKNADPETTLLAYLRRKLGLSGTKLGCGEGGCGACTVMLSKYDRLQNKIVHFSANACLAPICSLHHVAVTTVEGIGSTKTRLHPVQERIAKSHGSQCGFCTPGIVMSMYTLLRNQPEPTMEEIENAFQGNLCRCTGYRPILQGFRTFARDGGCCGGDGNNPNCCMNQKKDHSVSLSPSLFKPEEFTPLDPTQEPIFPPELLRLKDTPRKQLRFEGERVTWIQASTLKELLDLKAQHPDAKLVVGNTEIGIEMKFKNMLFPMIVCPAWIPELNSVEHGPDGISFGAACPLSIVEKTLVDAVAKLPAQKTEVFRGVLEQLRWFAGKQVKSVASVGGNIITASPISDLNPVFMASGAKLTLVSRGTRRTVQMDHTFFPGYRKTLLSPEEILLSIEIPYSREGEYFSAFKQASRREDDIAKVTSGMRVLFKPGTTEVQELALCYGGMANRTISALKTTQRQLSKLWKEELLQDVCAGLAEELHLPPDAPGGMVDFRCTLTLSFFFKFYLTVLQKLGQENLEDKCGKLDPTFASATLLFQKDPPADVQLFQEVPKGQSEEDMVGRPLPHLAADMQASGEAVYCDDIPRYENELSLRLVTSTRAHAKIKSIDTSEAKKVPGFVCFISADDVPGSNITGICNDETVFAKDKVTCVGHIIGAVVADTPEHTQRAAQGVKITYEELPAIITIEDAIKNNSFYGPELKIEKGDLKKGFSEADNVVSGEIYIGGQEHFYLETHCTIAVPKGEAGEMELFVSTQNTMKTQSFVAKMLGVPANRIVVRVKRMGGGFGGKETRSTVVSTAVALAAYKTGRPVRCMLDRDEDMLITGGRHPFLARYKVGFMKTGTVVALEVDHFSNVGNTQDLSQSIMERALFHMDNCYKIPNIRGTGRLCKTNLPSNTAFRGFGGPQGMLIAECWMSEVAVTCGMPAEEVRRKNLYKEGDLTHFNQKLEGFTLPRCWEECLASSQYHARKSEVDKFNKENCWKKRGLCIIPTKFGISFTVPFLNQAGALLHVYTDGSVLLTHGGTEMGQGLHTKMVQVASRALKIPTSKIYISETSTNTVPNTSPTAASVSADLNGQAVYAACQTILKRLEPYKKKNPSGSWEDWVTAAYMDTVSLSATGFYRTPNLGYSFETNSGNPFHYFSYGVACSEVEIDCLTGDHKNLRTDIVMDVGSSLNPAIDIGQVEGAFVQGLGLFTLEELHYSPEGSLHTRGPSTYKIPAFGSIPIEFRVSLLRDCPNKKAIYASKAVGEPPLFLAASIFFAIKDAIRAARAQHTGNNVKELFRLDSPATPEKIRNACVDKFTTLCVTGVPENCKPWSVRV

Activity [1]: 0.341 | IC50 [2]: 16.5 µM
SMILES: Cn1cc2c3c1C(=O)C(NCCc1ccc(O)cc1)=CC3=[N+](C)CC2.[Cl-] [MAKALUVAMINE P]
inhibition at 3.2 µg/mL (KB): 64%
